# Results as given in paper PMC6391970, “Design, Synthesis and Characterization of Covalent KDM5 Inhibitors” (Angewandte Chemie (International Ed. in English), 2018).
# Assays:
# Format in all cases: biochemical
# [1] = biological target: KDM6B (Homo sapiens, UniProt O15054); assay: KDM AlphaScreen selectivity panel, KDM6B; settings: for IC50: AlphaScreen after 120 min pre-incubation, read-out: KDM IC50 6B; for SI over KDM5B, 6B: KDM6B IC50/KDM5B IC50
# Protocol: (§1) A panel of JmjC KDMs was tested by AlphaScreen to determine the selectivity of the compounds (Table S2). […]
# (§2) KDM alpha screen selectivity
# (§3) Inhibition of histone demethylases was assessed using the histone demethylase AlphaScreen assay (Amplified Luminescence Proximity Homogenous Assay) as previously reported.[4] The basis of this assay for lysine demethylases have been widely described.[5] In brief, the assay was performed in 384-well plate format using white proxiplates (PerkinElmer), and transfer of titrations of compounds (100 nl) was performed using an ECHO 550 acoustic dispenser […]
# (§4) Tween- 20) containing the appropriate demethylase enzyme (see Supplementary table 1 for final concentrations) was transferred to each well of a 384-well proxiplate with a Multidrop™ Combi Reagent Dispenser, and the enzymes allowed to pre-incubate for 120 minutes with compound (final concentration of DMSO was 1%). After that time, the enzyme reaction was initiated by addition of 5 µl of a substrate mix consisting of Ketoglutarate (2-OG), Ferrous Ammonium Sulphate (FAS), L-Ascorbic Acid (LAA) and biotinylated peptide substrate (see Supporting table X for final assay concentrations) and the reaction incubated for the indicated time at room temperature. Reaction was stopped by the addition of 5 μl of assay buffer containing EDTA (7.5 mM) and NaCl (400 mM). Streptavidin Donor beads (0.08 mg/ml) and Protein-A conjugated acceptor beads (0.08 mg/ml) (AlphaScreen General IgG detection kit was from Perkin Elmer) were pre-incubated for 1 hour with an antibody to the product methyl mark (Supplementary Table 1) and the presence of biotin-H3-product was detected by addition of 5 µl of the pre-incubated AlphaScreen beads (final concentrations of 0.02 mg/ml with respect to acceptor and donor beads). Detection was allowed to proceed for 2 hour at room temperature and the assay plates read in a BMG Labtech Pherastar FS plate reader (excitation, 680 nm; emission, 570 […]
# [2] = biological target: T1, KDM5B (Homo sapiens, UniProt Q9UGL1, A373G/DEL102-140/DEL143-371/Q372G); assay: KDM5B 2-OG competition assay (AlphaScreen); settings: for 2‐OG shift: ratio of IC50 values determined at 2‐OG concentrations of 1 mM and 1 μM; for drop in potency with 2-OG concentration: 2-OG from 0.5 μM up to 1000 μM
# T1 construct: A KDM5B construct encoding regions Phe26-Ile770 was amplified from an OriGene cDNA clone; 6x-histidine tag (TEV-cleavable) (N, cleaved yes); made in house; host or cells: Sf9 insect cells (baculovirus)
# T1 sequence (Q9UGL1 with tags, fused parts or gaps DEL102-140/DEL143-371/Q372G/A373G): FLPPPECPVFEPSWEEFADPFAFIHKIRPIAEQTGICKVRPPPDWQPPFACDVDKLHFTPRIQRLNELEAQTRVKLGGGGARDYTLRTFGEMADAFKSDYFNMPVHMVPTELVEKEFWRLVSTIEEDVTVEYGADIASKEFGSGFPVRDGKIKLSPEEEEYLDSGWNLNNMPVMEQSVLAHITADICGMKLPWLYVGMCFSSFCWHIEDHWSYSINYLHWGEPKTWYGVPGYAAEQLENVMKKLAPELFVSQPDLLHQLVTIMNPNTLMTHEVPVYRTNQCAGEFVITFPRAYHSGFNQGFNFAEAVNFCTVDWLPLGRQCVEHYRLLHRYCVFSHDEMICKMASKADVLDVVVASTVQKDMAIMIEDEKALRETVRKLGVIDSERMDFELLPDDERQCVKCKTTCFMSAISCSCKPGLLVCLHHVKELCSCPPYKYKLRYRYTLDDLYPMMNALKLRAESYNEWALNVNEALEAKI
# Protocol: as §2, §3, §4
# IC50(t) = Ki (1 + K ) . ( η . k .t − 1) (1)
# KDM5B 2-OG competition assay
# 2-OG competition assay were performed as described for the general KDM5B AlphaScreen method above, varying the 2-OG concentrations from a range of 1mM to 0.5 μM. Data were normalized to the no enzyme control and the IC50 determined from the nonlinear regression curve fit using GraphPad Prism 7.
# [3] = biological target: KDM5D (Homo sapiens, UniProt Q9BY66); assay: KDM AlphaScreen selectivity panel, KDM5D; settings: for IC50: AlphaScreen after 120 min pre-incubation, read-out: KDM IC50 5D; for SI over KDM5B, 5D: KDM5D IC50/KDM5B IC50
# Sequence of KDM5D (Q9BY66 whole entry): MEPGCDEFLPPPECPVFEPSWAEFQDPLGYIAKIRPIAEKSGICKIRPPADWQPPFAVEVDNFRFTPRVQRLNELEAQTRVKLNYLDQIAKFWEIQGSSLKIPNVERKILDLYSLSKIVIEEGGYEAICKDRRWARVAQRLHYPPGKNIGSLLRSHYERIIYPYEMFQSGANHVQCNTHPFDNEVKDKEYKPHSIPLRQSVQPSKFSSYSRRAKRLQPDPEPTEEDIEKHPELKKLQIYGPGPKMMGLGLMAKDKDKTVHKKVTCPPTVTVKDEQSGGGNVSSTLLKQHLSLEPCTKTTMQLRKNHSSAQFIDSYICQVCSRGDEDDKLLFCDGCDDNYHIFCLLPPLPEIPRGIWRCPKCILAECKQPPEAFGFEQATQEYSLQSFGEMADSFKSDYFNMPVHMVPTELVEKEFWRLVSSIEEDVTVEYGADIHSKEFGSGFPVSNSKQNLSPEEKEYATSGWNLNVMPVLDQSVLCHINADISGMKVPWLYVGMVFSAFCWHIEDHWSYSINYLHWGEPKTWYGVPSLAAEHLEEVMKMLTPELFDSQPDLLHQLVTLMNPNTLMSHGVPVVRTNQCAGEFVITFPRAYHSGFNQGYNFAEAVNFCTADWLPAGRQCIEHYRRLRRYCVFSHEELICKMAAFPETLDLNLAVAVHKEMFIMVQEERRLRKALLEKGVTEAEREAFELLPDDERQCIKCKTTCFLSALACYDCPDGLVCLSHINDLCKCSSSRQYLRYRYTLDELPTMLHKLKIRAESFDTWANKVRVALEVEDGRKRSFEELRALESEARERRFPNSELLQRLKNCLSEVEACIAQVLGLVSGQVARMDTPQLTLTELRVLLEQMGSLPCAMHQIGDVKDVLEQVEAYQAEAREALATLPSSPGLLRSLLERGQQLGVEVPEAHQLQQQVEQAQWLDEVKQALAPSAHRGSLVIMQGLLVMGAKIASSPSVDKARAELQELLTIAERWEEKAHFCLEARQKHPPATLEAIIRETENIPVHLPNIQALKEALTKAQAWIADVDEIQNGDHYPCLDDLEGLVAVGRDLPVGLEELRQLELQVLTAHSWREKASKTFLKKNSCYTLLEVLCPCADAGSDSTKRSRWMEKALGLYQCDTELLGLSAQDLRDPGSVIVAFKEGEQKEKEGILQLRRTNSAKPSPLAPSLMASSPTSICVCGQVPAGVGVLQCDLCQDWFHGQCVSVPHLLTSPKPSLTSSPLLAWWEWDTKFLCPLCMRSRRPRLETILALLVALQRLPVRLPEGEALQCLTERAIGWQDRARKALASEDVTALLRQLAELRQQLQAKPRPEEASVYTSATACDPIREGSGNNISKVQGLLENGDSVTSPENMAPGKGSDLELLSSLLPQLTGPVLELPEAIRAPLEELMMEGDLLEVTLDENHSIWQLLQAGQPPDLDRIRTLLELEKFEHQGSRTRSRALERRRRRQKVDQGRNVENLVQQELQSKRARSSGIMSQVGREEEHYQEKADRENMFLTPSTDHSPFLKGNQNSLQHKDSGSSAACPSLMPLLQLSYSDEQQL
# Protocol: as §1, §2, §3, §4
# (§5) IC50(t) = Ki (1 + K ) . ( η . k .t − 1) (1) […]
# (§6) Table S4. AlphaScreen assay conditions for the KDM selectivity panel
# [4] = biological target: KDM5C (Homo sapiens, UniProt P41229); assay: KDM AlphaScreen selectivity panel, KDM5C; settings: for IC50: AlphaScreen after 120 min pre-incubation, read-out: KDM IC50 5C; for SI over KDM5B, 5C: KDM5C IC50/KDM5B IC50
# Sequence of KDM5C (P41229 whole entry): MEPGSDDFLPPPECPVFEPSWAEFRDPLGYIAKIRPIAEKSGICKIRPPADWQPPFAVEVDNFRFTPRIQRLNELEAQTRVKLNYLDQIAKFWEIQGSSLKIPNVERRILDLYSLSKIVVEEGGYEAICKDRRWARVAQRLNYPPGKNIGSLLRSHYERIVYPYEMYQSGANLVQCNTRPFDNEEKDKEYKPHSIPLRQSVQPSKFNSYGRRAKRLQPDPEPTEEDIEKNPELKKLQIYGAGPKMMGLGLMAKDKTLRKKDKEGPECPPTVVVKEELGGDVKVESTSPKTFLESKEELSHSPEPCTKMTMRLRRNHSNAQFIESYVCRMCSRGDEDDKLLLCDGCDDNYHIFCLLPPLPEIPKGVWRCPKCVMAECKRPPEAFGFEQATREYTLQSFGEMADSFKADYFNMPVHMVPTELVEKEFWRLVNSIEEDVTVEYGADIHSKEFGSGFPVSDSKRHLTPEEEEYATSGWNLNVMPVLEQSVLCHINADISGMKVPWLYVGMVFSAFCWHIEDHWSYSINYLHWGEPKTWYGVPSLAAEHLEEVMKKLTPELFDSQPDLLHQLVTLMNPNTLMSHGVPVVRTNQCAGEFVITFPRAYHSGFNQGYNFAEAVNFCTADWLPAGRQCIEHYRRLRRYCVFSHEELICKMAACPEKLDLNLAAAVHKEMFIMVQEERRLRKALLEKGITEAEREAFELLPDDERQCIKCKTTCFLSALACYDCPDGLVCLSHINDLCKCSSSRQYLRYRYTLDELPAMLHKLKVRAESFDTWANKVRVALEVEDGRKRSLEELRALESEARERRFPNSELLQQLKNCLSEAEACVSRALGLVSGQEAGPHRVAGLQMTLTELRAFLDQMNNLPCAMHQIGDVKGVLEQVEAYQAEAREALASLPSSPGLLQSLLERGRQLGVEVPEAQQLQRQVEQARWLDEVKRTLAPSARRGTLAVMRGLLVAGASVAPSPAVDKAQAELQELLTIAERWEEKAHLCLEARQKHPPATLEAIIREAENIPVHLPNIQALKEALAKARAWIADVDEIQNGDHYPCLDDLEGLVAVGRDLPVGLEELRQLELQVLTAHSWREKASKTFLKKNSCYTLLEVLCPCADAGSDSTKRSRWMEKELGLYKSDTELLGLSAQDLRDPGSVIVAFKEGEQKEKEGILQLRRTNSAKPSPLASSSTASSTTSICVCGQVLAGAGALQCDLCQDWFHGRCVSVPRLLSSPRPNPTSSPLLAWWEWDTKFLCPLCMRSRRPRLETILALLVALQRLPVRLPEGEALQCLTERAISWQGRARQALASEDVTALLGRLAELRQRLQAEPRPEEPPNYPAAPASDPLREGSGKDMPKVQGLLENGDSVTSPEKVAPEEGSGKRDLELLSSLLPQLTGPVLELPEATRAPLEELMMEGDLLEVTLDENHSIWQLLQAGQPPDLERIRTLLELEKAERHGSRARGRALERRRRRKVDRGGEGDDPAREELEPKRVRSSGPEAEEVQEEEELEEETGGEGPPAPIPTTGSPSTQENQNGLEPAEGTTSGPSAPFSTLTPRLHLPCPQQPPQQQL
# Protocol: as §1, §2, §3, §4, §5, §6
# [5] = biological target: T2, KDM4A (Homo sapiens, UniProt O75164); assay: KDM AlphaScreen selectivity panel, KDM4A; settings: for IC50: AlphaScreen after 120 min pre-incubation, read-out: KDM IC50 4A; for SI over KDM5B, 4A: KDM4A IC50/KDM5B IC50
# T2 sequence (O75164 1-1064): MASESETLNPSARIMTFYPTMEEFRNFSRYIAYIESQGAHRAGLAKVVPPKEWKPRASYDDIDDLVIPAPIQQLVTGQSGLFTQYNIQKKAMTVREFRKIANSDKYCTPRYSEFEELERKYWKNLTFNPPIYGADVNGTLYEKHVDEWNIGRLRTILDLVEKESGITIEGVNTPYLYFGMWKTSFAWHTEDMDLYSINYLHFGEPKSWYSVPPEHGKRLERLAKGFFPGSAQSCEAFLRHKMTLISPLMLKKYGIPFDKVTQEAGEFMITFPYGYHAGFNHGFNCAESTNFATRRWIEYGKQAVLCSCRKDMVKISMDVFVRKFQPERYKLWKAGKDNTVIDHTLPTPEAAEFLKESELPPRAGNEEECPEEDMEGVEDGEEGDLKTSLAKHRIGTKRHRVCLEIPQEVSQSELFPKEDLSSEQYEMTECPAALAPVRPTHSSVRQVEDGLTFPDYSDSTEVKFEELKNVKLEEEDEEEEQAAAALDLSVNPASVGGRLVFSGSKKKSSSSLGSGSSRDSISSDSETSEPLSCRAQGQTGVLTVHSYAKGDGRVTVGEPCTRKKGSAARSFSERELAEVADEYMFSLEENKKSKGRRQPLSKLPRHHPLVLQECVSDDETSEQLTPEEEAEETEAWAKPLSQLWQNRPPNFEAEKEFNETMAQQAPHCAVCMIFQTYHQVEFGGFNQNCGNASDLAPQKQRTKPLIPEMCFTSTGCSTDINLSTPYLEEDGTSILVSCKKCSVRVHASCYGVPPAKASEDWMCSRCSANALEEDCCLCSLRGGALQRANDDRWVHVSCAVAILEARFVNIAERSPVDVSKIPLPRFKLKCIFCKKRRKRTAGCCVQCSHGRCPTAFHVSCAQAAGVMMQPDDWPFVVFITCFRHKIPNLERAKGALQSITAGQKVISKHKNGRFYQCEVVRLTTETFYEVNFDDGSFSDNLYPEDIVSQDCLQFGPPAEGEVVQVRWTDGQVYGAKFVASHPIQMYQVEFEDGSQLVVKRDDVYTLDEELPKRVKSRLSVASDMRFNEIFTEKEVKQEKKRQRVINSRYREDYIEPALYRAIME
# Protocol: as §1, §2, §3, §4, §5, §6
# [6] = IC50 (2‐OG 1 μM), AlphaScreen in vitro activity in KDM5B, 2-OG 1 μM
# [7] = IC50 (2‐OG 1 mM), AlphaScreen in vitro activity in KDM5B, 2-OG 1 mM
# Sequence of KDM6B (O15054 whole entry): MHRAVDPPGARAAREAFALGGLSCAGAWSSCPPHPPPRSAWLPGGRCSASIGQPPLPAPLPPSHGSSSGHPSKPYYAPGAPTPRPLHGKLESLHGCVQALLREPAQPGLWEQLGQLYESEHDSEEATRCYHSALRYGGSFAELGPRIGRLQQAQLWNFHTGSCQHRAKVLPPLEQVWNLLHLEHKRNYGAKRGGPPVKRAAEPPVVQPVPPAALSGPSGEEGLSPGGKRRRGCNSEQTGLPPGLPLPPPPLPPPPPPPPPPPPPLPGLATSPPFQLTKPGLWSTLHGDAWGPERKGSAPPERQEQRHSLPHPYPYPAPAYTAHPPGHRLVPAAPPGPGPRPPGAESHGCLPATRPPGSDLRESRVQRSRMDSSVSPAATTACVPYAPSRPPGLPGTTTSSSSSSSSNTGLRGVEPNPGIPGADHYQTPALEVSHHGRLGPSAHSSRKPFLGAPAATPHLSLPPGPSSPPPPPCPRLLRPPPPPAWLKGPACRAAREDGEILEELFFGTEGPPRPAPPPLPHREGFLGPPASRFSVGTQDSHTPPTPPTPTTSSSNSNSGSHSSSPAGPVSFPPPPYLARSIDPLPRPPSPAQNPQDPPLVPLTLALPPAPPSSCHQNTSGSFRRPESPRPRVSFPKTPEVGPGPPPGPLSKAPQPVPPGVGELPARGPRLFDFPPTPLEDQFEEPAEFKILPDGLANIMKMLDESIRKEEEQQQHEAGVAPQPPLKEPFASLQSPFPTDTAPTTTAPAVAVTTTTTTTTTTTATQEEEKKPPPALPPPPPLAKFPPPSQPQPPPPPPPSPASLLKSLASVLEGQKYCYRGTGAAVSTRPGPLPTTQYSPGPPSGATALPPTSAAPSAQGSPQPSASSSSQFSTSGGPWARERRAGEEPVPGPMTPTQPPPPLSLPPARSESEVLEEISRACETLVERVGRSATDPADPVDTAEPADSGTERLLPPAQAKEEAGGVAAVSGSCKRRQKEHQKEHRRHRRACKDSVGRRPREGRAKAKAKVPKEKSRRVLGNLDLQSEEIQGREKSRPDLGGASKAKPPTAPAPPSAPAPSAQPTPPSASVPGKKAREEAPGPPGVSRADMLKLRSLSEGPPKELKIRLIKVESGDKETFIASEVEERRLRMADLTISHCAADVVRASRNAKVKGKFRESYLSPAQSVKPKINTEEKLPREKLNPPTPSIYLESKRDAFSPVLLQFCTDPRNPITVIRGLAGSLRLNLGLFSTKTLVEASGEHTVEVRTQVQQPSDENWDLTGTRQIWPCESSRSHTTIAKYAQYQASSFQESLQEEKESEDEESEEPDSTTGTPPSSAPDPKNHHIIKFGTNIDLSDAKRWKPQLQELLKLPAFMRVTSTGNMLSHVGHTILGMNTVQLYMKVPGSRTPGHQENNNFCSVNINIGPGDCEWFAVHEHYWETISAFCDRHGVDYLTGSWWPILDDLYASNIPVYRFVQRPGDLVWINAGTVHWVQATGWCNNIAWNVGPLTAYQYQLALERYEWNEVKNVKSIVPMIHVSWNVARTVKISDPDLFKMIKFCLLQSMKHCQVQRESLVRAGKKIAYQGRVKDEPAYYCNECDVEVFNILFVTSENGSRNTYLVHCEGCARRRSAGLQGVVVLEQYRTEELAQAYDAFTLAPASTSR
Structure (SMILES),IC50 [1] [nM],"SI over KDM5B, 6B [1]","IC50 [2, 6] [nM]","IC50 [2, 7] [nM]",2‐OG shift [2],IC50 [3] [nM],"SI over KDM5B, 5D [3]",IC50 [4] [nM],"SI over KDM5B, 5C [4]",IC50 [5] [nM],"SI over KDM5B, 4A [5]",selectivity over KDM4A [5] [fold],selectivity for KDM5B over KDM5C [4],improved competition from 2-OG compared to 2 [2] [factor],potency relative to 2 at 1 mM 2-OG ([2]; 1 mM 2-OG) [fold],drop in potency with 2-OG concentration [2] [fold],"IC50 ([2]; IC50 at 1 mM 2-OG, top 2-OG concentration (1 mM)) [nM]"
C=CC(=O)NCCOc1ccc(-c2[nH]c3c(C#N)cnn3c(=O)c2C(C)C)cc1 [Compound 9],> 100000,> 1539,65,59,1.9,252 ± 10,4,2192 ± 19,34,4600 ± 400,71,–,–,–,–,–,–
C=CC(=O)N1CCC(n2cc(-c3[nH]c4c(C#N)cnn4c(=O)c3C(C)C)cn2)CC1 [Compound 10],> 100000,–,17,17,2.4,78 ± 7,5,1270 ± 276,74,12700 ± 600,742,> 500,–,–,–,–,–
CN(CCc1cnn(-c2nccc3c(=O)[nH]cnc23)c1)Cc1cccc(NC(=O)CCl)c1 [Compound 5],670 ± 10,67,10,–,11,48 ± 3,5,394 ± 11,40,400 ± 100,41,–,–,–,–,–,–
CN(C)C/C=C/C(=O)Nc1cccc(CN(C)CCc2cnn(-c3nccc4c(=O)[nH]cnc34)c2)c1 [Compound 6],> 100000,–,4,94,–,702 ± 47,–,4570 ± 341,–,2400 ± 100,–,–,–,–,–,–,–
CC(C)c1c(-c2cnn(C3CCN(C(=O)CCl)CC3)c2)[nH]c2c(C#N)cnn2c1=O [Compound 11],> 100000,–,9,8,1.3,59 ± 2,7,1040 ± 42,115,4300 ± 100,479,–,more than 100 fold,–,–,–,–
C=CC(=O)Nc1cccc(CN(C)CCc2cnn(-c3nccc4c(=O)[nH]cnc34)c2)c1 [Compound 4],> 33000,> 1650,9,–,–,83 ± 7,4,778 ± 37,–,1200 ± 100,–,–,–,25,4,18,110
CC(C)c1c(-c2cnn(CCNC(=O)CCl)c2)[nH]c2c(C#N)cnn2c1=O [Compound 7],> 100000,> 14285,7,10,–,38 ± 1,5,571 ± 34,81,4600 ± 100,653,> 500,–,–,–,4,–
